Experimental data reported in ChEMBL document CHEMBL1150976, “The selectivity of protein kinase inhibitors: a further update” (Biochem J, 2007).

Experiments:
[1] = molecular target: Myosin light chain kinase, smooth muscle (Homo sapiens, UniProt Q15746); assay: Percentage SmMLCK activity remaining in the presence of 0.01uM inhibitor
[2] = molecular target: Mitogen-activated protein kinase 1 (Homo sapiens) (UniProt P28482); assay: Percentage ERK2 activity remaining in the presence of 0.01uM inhibitor
[3] = molecular target: Proto-oncogene tyrosine-protein kinase Src (Gallus gallus) (UniProt P00523); assay: Percentage Src activity remaining in the presence of 25uM inhibitor
[4] = molecular target: Glycogen synthase kinase-3 beta (Homo sapiens, UniProt P49841); assay: Percentage GSK3-beta activity remaining in the presence of 25uM inhibitor
Chain of Glycogen synthase kinase-3 beta (P49841 whole entry, looked up): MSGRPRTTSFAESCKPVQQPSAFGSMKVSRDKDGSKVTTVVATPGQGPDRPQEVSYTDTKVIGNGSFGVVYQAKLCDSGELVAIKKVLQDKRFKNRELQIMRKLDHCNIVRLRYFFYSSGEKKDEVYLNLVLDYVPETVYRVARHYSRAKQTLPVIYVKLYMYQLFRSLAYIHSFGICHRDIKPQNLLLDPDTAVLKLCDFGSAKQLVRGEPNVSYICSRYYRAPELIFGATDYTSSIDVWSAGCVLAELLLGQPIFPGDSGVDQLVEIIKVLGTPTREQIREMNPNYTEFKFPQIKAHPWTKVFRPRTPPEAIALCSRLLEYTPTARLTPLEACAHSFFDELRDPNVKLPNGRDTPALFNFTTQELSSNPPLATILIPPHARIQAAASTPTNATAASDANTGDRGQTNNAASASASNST

[5] = molecular target: T1, Dual specificity tyrosine-phosphorylation-regulated kinase 2 (Homo sapiens) (UniProt Q92630); assay: Percentage DYRK2 activity remaining in the presence of 25uM inhibitor
T1 sequence (whole entry): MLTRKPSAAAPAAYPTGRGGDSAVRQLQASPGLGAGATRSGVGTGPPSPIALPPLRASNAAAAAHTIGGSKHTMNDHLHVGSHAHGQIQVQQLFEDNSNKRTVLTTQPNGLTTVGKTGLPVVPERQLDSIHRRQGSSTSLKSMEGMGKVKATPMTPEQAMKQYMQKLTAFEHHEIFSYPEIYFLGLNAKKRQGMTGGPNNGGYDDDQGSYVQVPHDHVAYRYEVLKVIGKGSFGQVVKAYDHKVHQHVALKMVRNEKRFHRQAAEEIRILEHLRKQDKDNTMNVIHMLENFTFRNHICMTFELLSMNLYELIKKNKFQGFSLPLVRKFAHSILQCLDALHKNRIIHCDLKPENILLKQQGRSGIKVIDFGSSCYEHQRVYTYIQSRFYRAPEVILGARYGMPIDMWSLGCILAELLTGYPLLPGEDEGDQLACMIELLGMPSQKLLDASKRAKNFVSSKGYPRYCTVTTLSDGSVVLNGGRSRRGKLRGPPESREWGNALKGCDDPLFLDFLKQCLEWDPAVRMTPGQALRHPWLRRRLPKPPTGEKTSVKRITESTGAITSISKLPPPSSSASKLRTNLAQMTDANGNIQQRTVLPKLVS

[6] = molecular target: Maternal embryonic leucine zipper kinase (Homo sapiens) (UniProt Q14680); assay: Percentage MELK activity remaining in the presence of 25uM inhibitor
[7] = molecular target: Serine/threonine-protein kinase Nek7 (Homo sapiens) (UniProt Q8TDX7); assay: Percentage NEK7 activity remaining in the presence of 25uM inhibitor
Chain of Serine/threonine-protein kinase Nek7 (Homo sapiens) (Q8TDX7 whole entry, looked up): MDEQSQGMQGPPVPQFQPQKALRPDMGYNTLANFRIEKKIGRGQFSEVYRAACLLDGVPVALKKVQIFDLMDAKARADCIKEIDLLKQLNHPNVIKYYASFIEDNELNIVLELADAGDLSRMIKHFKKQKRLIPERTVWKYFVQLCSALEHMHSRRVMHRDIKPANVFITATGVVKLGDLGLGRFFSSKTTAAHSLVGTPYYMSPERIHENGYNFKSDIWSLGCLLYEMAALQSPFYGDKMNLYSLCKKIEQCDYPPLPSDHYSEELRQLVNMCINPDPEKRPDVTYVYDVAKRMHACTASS

[8] = molecular target: Serine/threonine-protein kinase PAK 4 (Homo sapiens, UniProt O96013); assay: Percentage PAK4 activity remaining in the presence of 25uM inhibitor
Chain of Serine/threonine-protein kinase PAK 4 (O96013 whole entry, looked up): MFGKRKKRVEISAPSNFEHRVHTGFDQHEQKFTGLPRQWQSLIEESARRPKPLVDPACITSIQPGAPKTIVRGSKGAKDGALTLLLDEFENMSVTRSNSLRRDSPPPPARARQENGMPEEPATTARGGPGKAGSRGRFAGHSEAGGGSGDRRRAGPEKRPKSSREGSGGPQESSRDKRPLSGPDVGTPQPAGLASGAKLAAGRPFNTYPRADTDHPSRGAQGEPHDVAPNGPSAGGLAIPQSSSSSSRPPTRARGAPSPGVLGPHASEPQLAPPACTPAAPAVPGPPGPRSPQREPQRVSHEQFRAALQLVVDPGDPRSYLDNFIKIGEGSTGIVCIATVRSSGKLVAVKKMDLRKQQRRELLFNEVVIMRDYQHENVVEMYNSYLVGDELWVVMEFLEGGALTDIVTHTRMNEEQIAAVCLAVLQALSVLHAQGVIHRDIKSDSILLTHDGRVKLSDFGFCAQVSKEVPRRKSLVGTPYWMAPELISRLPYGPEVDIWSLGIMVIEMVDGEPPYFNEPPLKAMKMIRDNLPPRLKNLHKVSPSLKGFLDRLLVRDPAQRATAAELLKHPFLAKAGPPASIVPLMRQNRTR

[9] = molecular target: Homeodomain-interacting protein kinase 2 (Homo sapiens) (UniProt Q9H2X6); assay: Percentage HIPK2 activity remaining in the presence of 25uM inhibitor
Chain of Homeodomain-interacting protein kinase 2 (Homo sapiens) (Q9H2X6 whole entry, looked up, canonical isoform): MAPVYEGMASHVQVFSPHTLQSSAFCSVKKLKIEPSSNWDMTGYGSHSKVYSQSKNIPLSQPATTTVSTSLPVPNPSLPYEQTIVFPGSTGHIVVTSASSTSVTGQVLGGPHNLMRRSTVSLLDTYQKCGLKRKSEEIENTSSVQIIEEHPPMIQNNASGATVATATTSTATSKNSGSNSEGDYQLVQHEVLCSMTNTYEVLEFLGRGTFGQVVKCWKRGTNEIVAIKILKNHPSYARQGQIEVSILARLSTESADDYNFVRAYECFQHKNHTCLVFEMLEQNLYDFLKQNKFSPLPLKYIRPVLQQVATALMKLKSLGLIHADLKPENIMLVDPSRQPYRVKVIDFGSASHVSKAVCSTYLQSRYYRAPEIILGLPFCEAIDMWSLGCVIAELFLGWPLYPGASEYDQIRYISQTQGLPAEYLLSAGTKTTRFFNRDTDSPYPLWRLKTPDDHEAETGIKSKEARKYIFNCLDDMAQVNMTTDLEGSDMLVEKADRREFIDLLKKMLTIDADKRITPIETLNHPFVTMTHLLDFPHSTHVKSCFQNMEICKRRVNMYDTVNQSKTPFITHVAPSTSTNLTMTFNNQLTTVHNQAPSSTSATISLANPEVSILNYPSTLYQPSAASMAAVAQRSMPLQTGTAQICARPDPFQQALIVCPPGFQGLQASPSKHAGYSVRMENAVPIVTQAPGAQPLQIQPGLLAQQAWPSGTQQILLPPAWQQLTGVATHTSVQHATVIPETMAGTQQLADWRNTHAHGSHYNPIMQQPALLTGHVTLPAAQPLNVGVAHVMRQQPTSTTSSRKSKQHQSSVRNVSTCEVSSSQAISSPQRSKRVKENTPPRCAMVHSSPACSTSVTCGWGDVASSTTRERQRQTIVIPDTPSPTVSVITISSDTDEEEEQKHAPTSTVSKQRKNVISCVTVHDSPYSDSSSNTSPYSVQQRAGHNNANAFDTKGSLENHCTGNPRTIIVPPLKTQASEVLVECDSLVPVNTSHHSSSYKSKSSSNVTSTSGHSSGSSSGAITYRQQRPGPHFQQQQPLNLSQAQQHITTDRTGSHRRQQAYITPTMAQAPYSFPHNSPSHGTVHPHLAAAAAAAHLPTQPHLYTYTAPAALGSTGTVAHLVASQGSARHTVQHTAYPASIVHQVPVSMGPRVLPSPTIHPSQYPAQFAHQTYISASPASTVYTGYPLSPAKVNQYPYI

[10] = molecular target: Casein kinase I isoform delta (Homo sapiens, UniProt P48730); assay: Percentage CK1delta activity remaining in the presence of 25uM inhibitor; settings: filed as antagonist
[11] = molecular target: MAP kinase-interacting serine/threonine-protein kinase 1 (Homo sapiens) (UniProt Q9BUB5); assay: Percentage MNK1 activity remaining in the presence of 25uM inhibitor
[12] = molecular target: Serine/threonine-protein kinase N2 (Homo sapiens) (UniProt Q16513); assay: Percentage PRK2 activity remaining in the presence of 25uM inhibitor
[13] = molecular target: Serine/threonine-protein kinase PAK 6 (Homo sapiens) (UniProt Q9NQU5); assay: Percentage PAK6 activity remaining in the presence of 25uM inhibitor
[14] = molecular target: Serine/threonine-protein kinase PLK1 (Homo sapiens, UniProt P53350); assay: Percentage PLK1 activity remaining in the presence of 25uM inhibitor
Chain of Serine/threonine-protein kinase PLK1 (P53350 whole entry): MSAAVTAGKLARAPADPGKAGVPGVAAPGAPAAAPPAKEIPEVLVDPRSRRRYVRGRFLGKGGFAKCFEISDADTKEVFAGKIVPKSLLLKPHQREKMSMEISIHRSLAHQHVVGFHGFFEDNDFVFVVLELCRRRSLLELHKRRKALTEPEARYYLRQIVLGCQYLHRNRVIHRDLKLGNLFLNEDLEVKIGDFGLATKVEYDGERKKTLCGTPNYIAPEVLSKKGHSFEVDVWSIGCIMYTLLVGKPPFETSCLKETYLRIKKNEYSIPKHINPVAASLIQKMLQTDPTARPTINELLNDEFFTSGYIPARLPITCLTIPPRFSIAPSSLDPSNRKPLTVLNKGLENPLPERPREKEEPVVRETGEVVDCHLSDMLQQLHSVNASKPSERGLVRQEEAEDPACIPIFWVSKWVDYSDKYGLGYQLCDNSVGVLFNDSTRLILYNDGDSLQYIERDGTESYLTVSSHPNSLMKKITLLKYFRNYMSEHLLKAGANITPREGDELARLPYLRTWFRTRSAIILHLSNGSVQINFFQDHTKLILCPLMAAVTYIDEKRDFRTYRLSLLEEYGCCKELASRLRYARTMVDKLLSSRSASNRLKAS

[15] = molecular target: Mitogen-activated protein kinase 10 (Homo sapiens) (UniProt P53779); assay: Percentage JNK3 activity remaining in the presence of 25uM inhibitor
[16] = molecular target: T2, Aurora kinase C (Homo sapiens) (UniProt Q9UQB9); assay: Percentage Aurora C activity remaining in the presence of 25uM inhibitor
T2 sequence (whole entry): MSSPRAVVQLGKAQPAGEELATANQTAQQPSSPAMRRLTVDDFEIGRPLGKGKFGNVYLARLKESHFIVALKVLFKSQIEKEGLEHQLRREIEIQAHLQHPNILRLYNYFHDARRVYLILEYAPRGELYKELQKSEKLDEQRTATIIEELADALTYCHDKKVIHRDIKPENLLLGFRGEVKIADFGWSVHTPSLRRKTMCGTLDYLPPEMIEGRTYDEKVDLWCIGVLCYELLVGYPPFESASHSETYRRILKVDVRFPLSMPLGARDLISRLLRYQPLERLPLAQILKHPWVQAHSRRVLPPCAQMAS

[17] = molecular target: Proto-oncogene tyrosine-protein kinase LCK (Mus musculus) (UniProt P06240); assay: Percentage Lck activity remaining in the presence of 25uM inhibitor
[18] = molecular target: Cyclin-dependent kinase 2/cyclin A (Homo sapiens) (UniProt P24941+P20248+P78396); assay: Percentage CDK2-cyclinA activity remaining in the presence of 25uM inhibitor; assay type: protein-complex assay
[19] = molecular target: T3, Protein kinase C zeta type (Homo sapiens) (UniProt Q05513); assay: Percentage PKCzeta activity remaining in the presence of 25uM inhibitor
T3 sequence (whole entry): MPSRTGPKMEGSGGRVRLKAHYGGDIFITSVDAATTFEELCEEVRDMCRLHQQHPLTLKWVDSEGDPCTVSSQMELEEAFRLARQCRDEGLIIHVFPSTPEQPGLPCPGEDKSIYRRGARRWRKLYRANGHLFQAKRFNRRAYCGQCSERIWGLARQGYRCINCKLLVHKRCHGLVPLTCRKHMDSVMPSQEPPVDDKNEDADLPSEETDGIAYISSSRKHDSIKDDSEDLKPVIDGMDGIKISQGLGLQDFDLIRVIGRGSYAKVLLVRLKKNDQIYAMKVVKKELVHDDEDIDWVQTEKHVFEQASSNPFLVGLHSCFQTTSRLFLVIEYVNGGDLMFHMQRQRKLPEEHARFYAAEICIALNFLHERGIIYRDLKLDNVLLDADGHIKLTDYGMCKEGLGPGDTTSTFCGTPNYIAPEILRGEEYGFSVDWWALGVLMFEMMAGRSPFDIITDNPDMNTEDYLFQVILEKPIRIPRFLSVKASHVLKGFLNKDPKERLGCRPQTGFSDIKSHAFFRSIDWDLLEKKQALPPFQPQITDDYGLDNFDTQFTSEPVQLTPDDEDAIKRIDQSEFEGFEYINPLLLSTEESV

Chain of Myosin light chain kinase, smooth muscle (Q15746 whole entry): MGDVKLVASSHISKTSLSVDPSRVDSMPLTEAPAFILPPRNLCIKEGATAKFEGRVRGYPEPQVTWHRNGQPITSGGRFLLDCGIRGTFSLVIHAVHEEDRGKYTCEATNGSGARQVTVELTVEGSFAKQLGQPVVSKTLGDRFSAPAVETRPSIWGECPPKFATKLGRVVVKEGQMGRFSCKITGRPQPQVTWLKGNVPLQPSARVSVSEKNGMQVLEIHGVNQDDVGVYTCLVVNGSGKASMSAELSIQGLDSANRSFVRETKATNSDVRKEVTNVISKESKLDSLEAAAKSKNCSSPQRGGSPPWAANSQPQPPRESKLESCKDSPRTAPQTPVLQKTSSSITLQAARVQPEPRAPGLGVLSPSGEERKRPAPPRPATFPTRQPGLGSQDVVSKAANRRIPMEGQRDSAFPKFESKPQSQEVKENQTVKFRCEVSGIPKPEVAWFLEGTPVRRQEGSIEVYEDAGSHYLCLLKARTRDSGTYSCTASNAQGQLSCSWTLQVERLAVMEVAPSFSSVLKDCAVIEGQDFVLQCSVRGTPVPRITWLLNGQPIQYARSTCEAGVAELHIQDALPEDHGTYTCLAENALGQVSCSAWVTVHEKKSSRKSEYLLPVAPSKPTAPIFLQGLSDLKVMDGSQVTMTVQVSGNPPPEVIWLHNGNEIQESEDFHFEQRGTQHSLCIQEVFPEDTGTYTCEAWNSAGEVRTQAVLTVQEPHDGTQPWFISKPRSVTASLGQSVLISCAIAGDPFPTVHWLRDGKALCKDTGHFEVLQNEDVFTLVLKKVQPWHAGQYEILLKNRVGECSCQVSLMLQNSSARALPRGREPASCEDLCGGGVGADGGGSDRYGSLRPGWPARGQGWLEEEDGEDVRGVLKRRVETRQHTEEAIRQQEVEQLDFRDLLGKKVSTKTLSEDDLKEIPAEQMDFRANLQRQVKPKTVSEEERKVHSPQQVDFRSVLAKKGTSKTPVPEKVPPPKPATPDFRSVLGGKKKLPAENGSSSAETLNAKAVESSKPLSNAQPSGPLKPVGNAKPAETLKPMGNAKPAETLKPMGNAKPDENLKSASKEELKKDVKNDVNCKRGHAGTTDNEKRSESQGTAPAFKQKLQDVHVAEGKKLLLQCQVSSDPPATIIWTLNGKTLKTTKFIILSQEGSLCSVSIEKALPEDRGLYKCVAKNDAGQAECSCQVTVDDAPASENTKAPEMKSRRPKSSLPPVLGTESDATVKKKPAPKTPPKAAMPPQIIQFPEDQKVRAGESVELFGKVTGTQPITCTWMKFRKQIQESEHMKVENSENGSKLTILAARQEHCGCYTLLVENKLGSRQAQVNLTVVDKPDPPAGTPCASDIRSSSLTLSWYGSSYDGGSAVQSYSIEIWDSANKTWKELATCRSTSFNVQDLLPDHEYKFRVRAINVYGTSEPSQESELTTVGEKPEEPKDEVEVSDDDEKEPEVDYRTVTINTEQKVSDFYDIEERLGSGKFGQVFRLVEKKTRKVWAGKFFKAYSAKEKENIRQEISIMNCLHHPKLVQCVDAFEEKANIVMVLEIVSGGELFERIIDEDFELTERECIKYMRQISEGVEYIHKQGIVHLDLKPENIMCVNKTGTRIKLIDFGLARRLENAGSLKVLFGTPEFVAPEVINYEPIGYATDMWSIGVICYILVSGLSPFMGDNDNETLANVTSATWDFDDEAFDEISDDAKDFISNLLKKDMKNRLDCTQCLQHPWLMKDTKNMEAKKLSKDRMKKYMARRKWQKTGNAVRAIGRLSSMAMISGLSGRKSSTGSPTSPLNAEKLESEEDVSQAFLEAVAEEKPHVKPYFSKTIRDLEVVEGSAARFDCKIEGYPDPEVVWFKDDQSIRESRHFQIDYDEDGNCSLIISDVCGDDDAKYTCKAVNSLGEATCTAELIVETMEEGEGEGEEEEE

SMILES | Activity [1] | Activity [2] | Activity [3] | Activity [4] | Activity [5] | Activity [6] | Activity [7] | Activity [8] | Activity [9] | Activity [10] | Activity [13] | Activity [14] | Activity [15] | Activity [16] | Activity [18] | Activity [19] | also measured
O=C(NCCCNc1nc(Nc2cccc(NC(=O)N3CCCC3)c2)ncc1I)c1cccs1 | 110% | 88% | – | – | – | – | – | – | – | – | – | – | – | – | – | – | –
Cc1n[nH]c2ccc(-c3cncc(OC[C@@H](N)Cc4c[nH]c5ccccc45)c3)cc12 | – | 78% | – | – | – | – | – | – | – | – | – | – | – | – | – | – | –
CN[C@@H]1C[C@H]2O[C@@](C)([C@@H]1OC)n1c3ccccc3c3c4c(c5c6ccccc6n2c5c31)C(=O)N[C@H]4O (stereo in doubt) | 83% | – | – | – | – | – | – | – | – | – | – | – | – | – | – | – | –
COc1cc(OC)c(/C=C2/C(=O)Nc3ccccc32)c(OC)c1 | – | – | 70% | 74% | 99% | 75% | 103% | 84% | 96% | 9% | 76% | 95% | 93% | 94% | 83% | 80% | Activity [11]: 79%; Activity [12]: 87%; Activity ([17]; filed as antagonist): 49%
NCCNS(=O)(=O)c1ccc(Cl)c2ccncc12 | – | – | 92% | 75% | 76% | 63% | 102% | 88% | 98% | 12% | 78% | 81% | 103% | 95% | 62% | 52% | Activity ([11]; filed as antagonist): 26%; Activity ([12]; filed as antagonist): 47%; Activity [17]: 83%
